From article PMC3775761, “Structure-Activity Relationships of FMRF-NH2 Peptides Demonstrate A Role for the Conserved C Terminus and Unique N-Terminal Extension in Modulating Cardiac Contractility” (PLoS ONE, 2013)
Read-outs that look alike come from different tables or passages of the source.

How the values were obtained:
[1] = test system: FMRFa-R; settings: expressed FMRFa-R protein, cited from earlier work
Description: In contrast, when the small, non-aromatic residue A was substituted for F, strong contacts which anchored FMRF-NH2 in the FMRFa-R binding pocket were lost, which substantially weakened ligand-receptor interactions (Figure 5, Tables 5 and 6). In addition, the F ... || Next, the effect of the analog SDNAMRF-NH2 was measured on heart rate at 1 µM. SDNAMRF-NH2 increased adult heart rate by 48±10%, a significant effect similar to SDNFMRF-NH2 (Figure 12, Table 14). The effect of the peptide analog was analyzed in adult because it is a developmental stage in which a robust response occurs which thus allows for subtle changes to be observed. […] Past studies analyzed the effects of some or all of these peptides in a bioassay; yet no report to date investigated th ...

[2] = test system: adult, larval, and pupal heart; assay: in vivo semi-isolated heart rate assay; design: species or system Drosophila melanogaster; settings: peptide 1 µM; for % increase in heart rate, Adult: adult heart (1 day adults); for % increase in heart rate, Adult / % increase in heart rate, Larval / % increase in heart rate, Pupal: maximum response within 10-minute recording, mean ± S.E.M., n≥6, basal heart rate = 100%; for % increase in heart rate, Larval: larval heart (wandering 3rd instar larvae); for % increase in heart rate, Pupal: pupal heart (white prepupae)
Description: D. melanogaster Oregon R strain flies were maintained on cornmeal molasses media at 24°C under a 12 hour light/dark cycle. Animals analyzed were wandering 3rd instar larvae, white prepupae, and 1 day adults. The effects of peptides and physiological saline, the carrier, were measured on both females and males; no sex-specific response was observed. The in vivo semi-isolated heart rate assays were performed according to a previously reported protocol. The rate of heart contractions for each animal was measured prior to application of a peptide (1 µM) or saline, the carrier, to provide a measure of basal rate. Animals (n≥6) were used only once. During and after delivery of the peptide or saline, contractions were continuously recorded for a 10-minute time period. The data analyzed were the maximum responses within the 10-minute recording period reported as mean values ± S.E.M. Data are reported as % basal heart rate where the frequency of contractions before application of peptide or saline is considered a measure of the baseline or basal level. Effects of peptides were compared to saline using Single Factor ANOVA with significance set at p ≤ 0.01; a peptide was considered to be active if its effects were statistically different from saline. The statistical outcomes were identical when calculated using two different data packages, Microsoft Excel and IBM SPSS.

[3] = Chinese hamster ovary cells, read-out: EC50, ligand-FMRFa-R binding
[4] = read-out: EC50, peptides bind FMRFa-R

Row | Substance | EC50 [1, 3] | % increase in heart rate, Adult [2] | % increase in heart rate, Larval [2] | % increase in heart rate, Pupal [2] | EC50 [1, 4] | heart rate return to baseline ([2]; pupal heart, recording period)
1 | AMRF-NH2 [analog replacing F1 with A] | 3220 nM | – | – | – | – | –
2 | DPKQDFMRF-NH2 [D. melanogaster FMRF-NH2 peptide encoded in dFMRFa] | – | 44±11% | 20±5% | 21±5% | 2 nM | –
3 | FMRF-NH2 [conserved C-terminal tetrapeptide; molluscan cardioexcitatory tetrapeptide] | 28 nM | 37±11% | 28±8% | 17±4% | – | –
4 | PDNFMRF-NH2 [D. melanogaster FMRF-NH2 peptide encoded in dFMRFa] | – | 51±12% | 26±5% | 27±7% | 1.8 nM | did not return to baseline within the recording period
5 | SDNAMRF-NH2 [designed analog of SDNFMRF-NH2 with F to A substitution] | 102 nM | 48±10% | – | – | – | –
6 | SDNFMRF-NH2 [D. melanogaster FMRF-NH2 peptide encoded in dFMRFa] | 1.9 nM | 39±11% | 24±8% | 15±4% | – | –
7 | SPKQDFMRF-NH2 [D. melanogaster FMRF-NH2 peptide encoded in dFMRFa] | – | 32±8% | 23±6% | 12±1% | 2.5 nM | –
8 | TPAEDFMRF-NH2 [D. melanogaster FMRF-NH2 peptide encoded in dFMRFa] | – | 40±2% | 20±4% | 26±8% | 2.8 nM | –
9 | YMRF-NH2 [analog in which Y replaced F1] | 31 nM | – | – | – | – | –
